pIC50: −log10 of the molar value. Where two headings read alike, the source gives them in different places.
Key:
rat mast cells = assay: Histamine secretion (compound 48/80-stimulated); assay type: cell-based; conditions: compound 48/80 0.1 μg/ml, 2 min, 37° C.
From the text: Using an in vitro rat model of mast cell degranulation (proposed by the CRO CEREP, catalog number 2006: 771-c), we aimed to investigate whether the synthetic molecules OM-174-DP (compound 1b) OM-174-MP-PD (19), OM-174-MP-EP (33), OM-174-MP-CM (35c) and OM-174-MP-PR (17) would inhibit histamine secretion by compound 48/80-stimulated mastocytes. The protocol used is briefly summarized below:
The results are expressed as a percent of control specific activity ((measured specific activity/control specific activity)×100) obtained in the presence of the test compounds. The IC50 values (concentration causing a half-maximal inhibition of control specific activity) were determined by non-linear regression analysis of the inhibition curves generated with mean replicate values using Hill equation curve fitting (Y=D+[(A−D)/(1+(C/C50)nH)], where Y=specific activity, D=minimum specific activity, A=maximum specific activity, C=compound concentration, C50=IC50, and nH=slope factor). This analysis was performed using a software developed at Cerep (Hill software) and validated by comparison with data generated by the commercial software SigmaPlot® 4.0 for Windows® (© 1997 by SPSS Inc.).
In each experiment, the reference compound was tested concurrently with the test compounds in order to assess the assay suitability. It was tested at several concentrations (for IC50 value determination), and the data were compared with historical values determined at CEREP. The assay was rendered valid if the suitability criteria were met, in accordance with the corresponding Standard Operating Procedure.

TLR2 and CD14 = target: T1, TLR2 and CD14 (Homo sapiens, UniProt O60603); assay: HEK-TLR2-CD14 IL-8 secretion; assay type: cell-based; conditions: 24 h
T1 construct: expressed in transfected cells; host or cells: HEK (HEK-TLR2-CD14 cell line)
T1 sequence (O60603 21-784): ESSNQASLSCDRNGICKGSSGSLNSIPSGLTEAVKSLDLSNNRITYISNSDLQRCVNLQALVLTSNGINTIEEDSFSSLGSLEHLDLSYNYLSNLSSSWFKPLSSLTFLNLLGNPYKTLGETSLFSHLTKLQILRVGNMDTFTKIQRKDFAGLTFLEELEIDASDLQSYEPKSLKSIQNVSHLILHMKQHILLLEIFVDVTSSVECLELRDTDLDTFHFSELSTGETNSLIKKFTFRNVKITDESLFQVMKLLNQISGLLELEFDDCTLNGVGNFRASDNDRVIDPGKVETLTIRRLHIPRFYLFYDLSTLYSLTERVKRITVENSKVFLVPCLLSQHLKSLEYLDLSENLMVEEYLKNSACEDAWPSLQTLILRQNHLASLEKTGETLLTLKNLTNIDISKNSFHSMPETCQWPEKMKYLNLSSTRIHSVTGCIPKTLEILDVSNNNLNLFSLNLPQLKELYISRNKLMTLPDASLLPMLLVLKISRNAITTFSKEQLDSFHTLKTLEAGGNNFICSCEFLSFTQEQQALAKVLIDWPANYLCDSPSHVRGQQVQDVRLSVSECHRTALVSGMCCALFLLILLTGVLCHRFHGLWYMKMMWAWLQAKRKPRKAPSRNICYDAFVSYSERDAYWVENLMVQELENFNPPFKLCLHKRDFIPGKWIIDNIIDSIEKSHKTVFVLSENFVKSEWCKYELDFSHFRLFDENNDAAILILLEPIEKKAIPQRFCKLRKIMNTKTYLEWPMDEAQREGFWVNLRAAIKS
From the text: (§1) The HEK293 cell line was chosen for its null or low basal expression of the TLR genes. These cells enable efficient monitoring of TLR activity using ELISA analysis such as IL-8 titration or reporter-based systems that monitor TLR-induced NF-κB activation. HEK-TLR2 cells (Invivogen, Toulouse, France) are engineered HEK293 cells stably transfected with multiple genes from the TLR2 pathway that include TLR2 and genes participating in the recognition or involved in the signaling cascade. These cells secrete IL-8 after TLR2 stimulation. The experiments were performed according to manufacturers' instructions. Briefly, 2×10^4 cells/well (200 ul RPMI) are incubated at 37° C. during 3 days (5% CO2). The medium is removed, and 90 ul RPMi+5% FCS is added to the wells Then the agonists and controls are added (10 ul/well). The cells return to the incubator for 24 hours. The supernatants are collected and the IL-8 ELISA is performed according to manufacturer's instructions These preliminary results were confirmed in another cell line expressing concomitantly TLR2 and CD14. The procedure used is similar to the one described just above.

[1] = test system: THP1-Blue cells (express naturally both TLR2 and TLR4); assay: THP1-Blue NF-κB/AP-1-inducible SEAP reporter; assay type: cell-based, human; conditions: 48 h
Procedure: A first series of experiment was performed on THP-1 cells, which express naturally both TLR2 and TLR4. THP-1 cells are human peripheral blood monocytic cells. Monocytes play a key role in innate immunity and express most TLRs at various levels. As for the primary cells, THP-1 cells activate NF-κB and other transcription factors in response to TLR ligands
To facilitate analysis of TLR response in monocytes, InvivoGen (Toulouse, France) provides THP-1 clones stably transfected with an NF-κB-inducible reporter system, called THP1-Blue™. THP-1 Blue cells were stably transfected with a reporter plasmid expressing a secreted embryonic alkaline phosphatase (SEAP) gene under the control of a promoter inducible by several transcription factors such as NF-κB and AP-1. Upon TLR stimulation, THP1-Blue™ cells activate transcription factors and subsequently the secretion of SEAP which is easily detectable when using QUANTI-Blue\u2122a medium that turns purple/blue in the presence of SEAP.
The cells were stimulated with the controls and compounds of the invention according to manufacturer's instructions. Results: Increased OD at 625 Nm after 48 Hours: The results for the controls (negative=LPS K12CD25 ultrapure, a TLR4 agonist; and PAM3CSK4=positive, a TLR2 agonist) are provided in the table below. The results (expressed as OD of arbitrary units) show the mean values (from duplicate measures) of Optical density read at 625 nm, 48 h after stimulation at 37° C. with the controls (up to 1000 ng/ml): […]

TLR4 = target: T2, TLR4 (Homo sapiens, UniProt O00206+Q9Y6Y9); assay: HEK-MD2-TLR4-CD14 IL-8 secretion; assay type: cell-based; conditions: 24 h
T2 construct: expressed in transfected cells; host or cells: HEK293
T2 sequence (O00206 24-839): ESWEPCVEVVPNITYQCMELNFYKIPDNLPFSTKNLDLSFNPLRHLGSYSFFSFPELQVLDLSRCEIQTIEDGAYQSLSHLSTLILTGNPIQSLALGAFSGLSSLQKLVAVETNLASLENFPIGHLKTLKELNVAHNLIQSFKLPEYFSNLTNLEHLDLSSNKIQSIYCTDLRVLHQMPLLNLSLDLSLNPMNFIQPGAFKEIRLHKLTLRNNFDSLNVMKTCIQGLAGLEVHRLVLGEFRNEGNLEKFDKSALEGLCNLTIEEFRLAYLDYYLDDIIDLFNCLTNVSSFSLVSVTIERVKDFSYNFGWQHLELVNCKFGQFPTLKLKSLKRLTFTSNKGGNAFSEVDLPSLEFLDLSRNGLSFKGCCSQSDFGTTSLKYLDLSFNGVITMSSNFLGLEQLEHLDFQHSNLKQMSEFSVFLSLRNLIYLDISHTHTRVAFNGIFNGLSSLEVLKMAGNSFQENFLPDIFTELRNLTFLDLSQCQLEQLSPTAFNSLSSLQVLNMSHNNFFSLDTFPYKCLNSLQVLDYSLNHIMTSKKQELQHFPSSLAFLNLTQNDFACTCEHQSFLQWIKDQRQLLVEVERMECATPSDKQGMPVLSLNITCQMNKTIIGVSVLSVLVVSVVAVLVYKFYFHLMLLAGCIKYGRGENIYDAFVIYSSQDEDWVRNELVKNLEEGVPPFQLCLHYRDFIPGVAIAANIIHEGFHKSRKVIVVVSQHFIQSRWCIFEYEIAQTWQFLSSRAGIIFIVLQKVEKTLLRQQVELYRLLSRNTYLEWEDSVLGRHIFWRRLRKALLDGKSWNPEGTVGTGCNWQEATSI
T2 sequence (Q9Y6Y9 17-160 limits assumed): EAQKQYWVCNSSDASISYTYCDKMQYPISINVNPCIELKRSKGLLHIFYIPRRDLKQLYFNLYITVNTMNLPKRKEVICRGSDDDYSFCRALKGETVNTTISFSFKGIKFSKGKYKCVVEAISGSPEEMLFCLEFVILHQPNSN
From the text: as §1, with “instructions” for “instructions These preliminary results were confirmed in another cell line expressing concomitantly TLR2 and CD14. The procedure used is similar to the one described just above.”
HEK-MD2-TLR4-CD14 are highly sensitive to LPS. They were obtained by stable transfection of HEK293 cells with the TLR4, MD2 and CD14 genes and an NF-κB-inducible reporter system. They secrete IL-8. We used the same experimental procedure as for the other HEK cell lines described above.

TLR2 = target: T3, TLR2 (Homo sapiens, UniProt O60603); assay: HEK-TLR2 IL-8 secretion; assay type: cell-based; conditions: 24 h
T3 construct: host or cells: HEK293
T3 sequence (O60603 21-784): as the sequence (O60603 21-784) above
From the text: as §1, with “instructions” for “instructions These preliminary results were confirmed in another cell line expressing concomitantly TLR2 and CD14. The procedure used is similar to the one described just above.”

[2] = test system: human peripheral blood mononuclear cells (PBMC); assay: TNF-α secretion by human PBMC (ELISA); assay type: cell-based; conditions: for TNF-α: 24 h; for TNF-α induction (in words): 0.2, 2, 20 μg/ml
Procedure: (§2) Peripheral blood from healthy donors (Centre de transfusion, Hôpital Universitaire, Geneva) was centrifuged to get the buffy coat. The buffy coat was mixed with Hanks' balanced saline solution (HBSS, Sigma, Buchs, Switzerland), layered over Ficoll Paque Plus (Amersham Pharmacia) to 1.077 g/mL and centrifuged (2800 rpm, 20° C., 25 min). Cells harvested from the interphase were washed twice in HBSS at 800 rpm for 15 min at room temperature and the pelleted cells were resuspended in HBSS. The cell counts were performed using a Neubauer cell. All cell cultures were performed in RPMI-1640 medium supplemented with penicillin (100 U/mL), streptomycin (100 μg/mL), L-glutamine (2 mmol/L) and 10% fetal calf serum (FCS), all obtained from Sigma. For in vitro stimulation, the cells were cultured at a concentration of 1×10^6 viable cells/well.
(§3) PBMC were incubated at 37° C. and under 5% CO2 atmosphere with the controls (see below) and with the products of the invention at 1, 5, and 20 μg/mL for IL-6, and at 0.2, 2, and 20 μg/mL for TNF-α secretion. Medium: RPMI alone.
(§4) The surpernatants of the cultures were harvested after 24 h and the concentration of IL-6 and TNF-α were measured by an enzyme-linked immunosorbent assay (ELISA) (Human IL-6 and TNF-α ELISA Set, BD OptEIA, San Diego, USA), according to the manufacturer instructions. The detection limits were 10 and 8 pg/mL respectively.

[3] = test system: human peripheral blood mononuclear cells (PBMC); assay: IL-6 secretion by human PBMC (ELISA); assay type: cell-based; conditions: for IL6: 24 h
Procedure: as §2, §3, §4
PBMC are incubated at 37° C. and under 5% CO2 atmosphere with the products of the invention.
The supernatants of the cultures are harvested after 24 h and the concentration of IL-6 was measured by an enzyme-linked immunosorbent assay (ELISA) (Human IL-6 ELISA Set, BD OptEIA, San Diego, USA), according to the manufacturer instructions. The detection limit was 10 pg/mL.

`O=C(O)c1cc(=O)c2c(OCC(O)COc3cccc4oc(C(=O)O)cc(=O)c34)cccc2o1` [SCG, reference compound] gave a pIC50 (rat mast cells; read-out: IC50, mean of the reference (5 different tests)) of 5.07.

For PAM3CSK4 [reference compound], the “IL-8 secretion, mean” value (TLR2 and CD14; 1 ng/ml) was 1.33 pg/mL, the “IL-8 secretion, mean” value (TLR2 and CD14; 4 ng/ml) was 2.55 pg/mL and the “IL-8 secretion, mean” value (TLR2 and CD14; 12 ng/ml) was 6.78 pg/mL. The “IL-8 secretion, mean” value (TLR2 and CD14; 37 ng/ml) was 15.90 pg/mL, the “IL-8 secretion, mean” value (TLR2 and CD14; 111 ng/ml) was 22.64 pg/mL and the “IL-8 secretion, mean” value (TLR2 and CD14; 333 ng/ml) was 33.30 pg/mL. For the same compound, the “IL-8 secretion, mean” value (TLR2 and CD14; 1000 ng/ml) was 39.04 pg/mL, the “Optical density read at 625 nm, mean of duplicates” value (shortened to “Optical density read at 625 nm”) ([1]; 1 ng/ml) was 0.48 OD and the “Optical density read at 625 nm” value ([1]; 4 ng/ml) was 0.85 OD. For the same compound, the “Optical density read at 625 nm” value ([1]; 12 ng/ml) was 1.11 OD, the “Optical density read at 625 nm” value ([1]; 37 ng/ml) was 1.22 OD and the “Optical density read at 625 nm” value ([1]; 111 ng/ml) was 1.30 OD. For the same compound, the “Optical density read at 625 nm” value ([1]; 333 ng/ml) was 1.38 OD, the “Optical density read at 625 nm” value ([1]; 1000 ng/ml) was 1.35 OD and the “IL-8 secretion, mean” value (TLR4; 1 ng/ml) was 1.75 pg/mL. For the same compound, the “IL-8 secretion, mean” value (TLR4; 4 ng/ml) was 1.78 pg/mL, the “IL-8 secretion, mean” value (TLR4; 12 ng/ml) was 1.76 pg/mL and the “IL-8 secretion, mean” value (TLR4; 37 ng/ml) was 1.72 pg/mL. The “IL-8 secretion, mean” value (TLR4; 111 ng/ml) was 1.83 pg/mL, the “IL-8 secretion, mean” value (TLR4; 333 ng/ml) was 1.87 pg/mL and the “IL-8 secretion, mean” value (TLR4; 1000 ng/ml) was 2.17 pg/mL. For the same compound, the “IL-8 secretion, mean” value (TLR2; 1 ng/ml) was 1.84 pg/mL, the “IL-8 secretion, mean” value (TLR2; 4 ng/ml) was 3.89 pg/mL and the “IL-8 secretion, mean” value (TLR2; 12 ng/ml) was 9.12 pg/mL. For the same compound, the “IL-8 secretion, mean” value (TLR2; 37 ng/ml) was 18.33 pg/mL, the “IL-8 secretion, mean” value (TLR2; 111 ng/ml) was 23.93 pg/mL and the “IL-8 secretion, mean” value (TLR2; 333 ng/ml) was 28.24 pg/mL. The “IL-8 secretion, mean” value (TLR2; 1000 ng/ml) was 32.94 pg/mL.

With `CCCCCCCCCCCCCCO[C@@H]1O[C@H](CO[C@@H]2O[C@H](CO)[C@@H](OP(=O)(O)O)[C@H](O)[C@H]2NC(=O)C[C@@H](CCCCCCCCCCC)OC(=O)CCCCCCCCCCC)[C@@H](O)[C@H](O)[C@H]1NC(=O)C[C@H](O)CCCCCCCCCCC` [compound 41c, Tetradecyl-2-Deoxy-6-O-[2-deoxy-4-O-(dihydroxyphosphoryl)-2-[(R)-3-dodecanoyloxytetradecanoylamino]-β-D-glucopyranosyl]-2-[(R)-3-hydroxytetradecanoylamino]-β-D-glucopyranoside] the TNF-α ([2]; 0.2 μg/ml) was 570 pg/mL, the TNF-α ([2]; 2 μg/ml) was 6036 pg/mL and the TNF-α ([2]; 20 μg/ml) was 9769 pg/mL. The “TNF-α induction (in words)” value [2] was “induced high levels of TNF-α”.

For `CCCCCCCCCCCC(=O)O[C@H](CCCCCCCCCCC)CC(=O)NC1C(OCC2OC(OCCO)C(NC(=O)C[C@H](O)CCCCCCCCCCC)C(O)C2O)OC(CO)C(OP(=O)(O)O)C1O` (stereo partly drawn) [compound 32, 2-Hydroxyethyl-2-Deoxy-6-O-[2-deoxy-4-O-(dihydroxyphosphoryl)-2-[(R)-3-dodecanoyloxytetradecanoylamino]-β-D-glucopyranosyl]-2-[(R)-3-hydroxytetradecanoylamino]-α-D-glucopyranoside], the TNF-α ([2]; 0.2 μg/ml) was 5.5 pg/mL, the TNF-α ([2]; 2 μg/ml) was 7.8 pg/mL and the TNF-α ([2]; 20 μg/ml) was 251 pg/mL. For the same compound, the “TNF-α induction (in words)” value [2] was “induced high levels of TNF-α”.

Compound `CCCCCCCCCCCC(=O)O[C@H](CCCCCCCCCCC)CC(=O)N[C@H]1[C@H](OC[C@H]2O[C@H](OCC(=O)O)[C@H](NC(=O)C[C@H](O)CCCCCCCCCCC)[C@@H](O)[C@@H]2O)O[C@H](CO)[C@@H](OP(=O)(O)O)[C@@H]1O` [compound 35c, 2-Carboxymethyl-2-Deoxy-6-O-[2-deoxy-4-O-(dihydroxyphosphoryl)-2-[(R)-3-dodecanoyloxytetradecanoylamino]-β-D-glucopyranosyl]-2-[(R)-3-hydroxytetradecanoylamino]-α-D-glucopyranoside] has a pIC50 (rat mast cells; read-out: IC50) of 6.49, a TNF-α ([2]; 0.2 μg/ml) of 48 pg/mL and a TNF-α ([2]; 2 μg/ml) of 502 pg/mL. For the same compound, the TNF-α ([2]; 20 μg/ml) was 591 pg/mL.

`CCCCCCCCCCCC(=O)O[C@H](CCCCCCCCCCC)CC(=O)NC1C(OCC2OC(OCCCCCCN)C(NC(=O)C[C@H](O)CCCCCCCCCCC)C(O)C2O)OC(CO)C(OP(=O)(O)O)C1O` (stereo partly drawn) [compound 26, 6-Aminohexyl-2-deoxy-6-O-[2-deoxy-4-O-(dihydroxyphosphoryl)-2-[(R)-3-dodecanoyloxytetradecanoylamino]-β-D-glucopyranosyl]-2-[(R)-3-hydroxytetradecanoylamino]-β-D-glucopyranoside] gave an IL6 ([3]; 1 μg/ml) of 269.0 pg/mL, an IL6 ([3]; 5 μg/ml) of 1923.2 pg/mL and an IL6 ([3]; 20 μg/ml) of 8349.3 pg/mL. For the same compound, the “IL-6 secretion (in words)” value ([3]; 1, 5, 20 μg/ml) was “able to induce IL-6 secretion”, the TNF-α ([2]; 0.2 μg/ml) was 29.3 pg/mL and the TNF-α ([2]; 2 μg/ml) was 1264 pg/mL. For the same compound, the TNF-α ([2]; 20 μg/ml) was 7016 pg/mL and the “TNF-α induction (in words)” value [2] was “induced high levels of TNF-α”.

— patent publication US20100168054A1, “Functionalized Beta 1,6 Glucosamine Disaccharides and Process for Their Preparation” (OM PHARMA, priority 2006, published 2010)
